Test results published in article PMC11012124, “Synthesis of Novel Triazine-Based Chalcones and 8,9-dihydro-7H-pyrimido[4,5-b][1,4]diazepines as Potential Leads in the Search of Anticancer, Antibacterial and Antifungal Agents” (International Journal of Molecular Sciences, 2024).
In brackets after ≈: the same amount, converted by molar mass.

Key:
SNB-19 = assay: cells; conditions: Homo sapiens, SNB-19, 48 h; for CC50: read-out: LC50
RPMI-8226 = assay: cells; conditions: Homo sapiens, RPMI-8226, 48 h; for CC50: read-out: LC50
OVCAR-8 = assay: cells; conditions: Homo sapiens, OVCAR-8, 48 h; for CC50: read-out: LC50
DU-145 = assay: cells; conditions: Homo sapiens, DU-145, 48 h; for CC50: read-out: LC50
MCF7 = assay: cells; conditions: Homo sapiens, MCF7, 48 h; for CC50: read-out: LC50
TK-10 = assay: cells; conditions: Homo sapiens, TK-10, 48 h; for CC50: read-out: LC50
HL-60(TB) = assay: cells; conditions: Homo sapiens, HL-60, 48 h; for CC50: read-out: LC50
SN12C = assay: cells; conditions: Homo sapiens, 48 h; for CC50: read-out: LC50
BT-549 = assay: cells; conditions: Homo sapiens, BT-549, 48 h; for CC50: read-out: LC50
MDA-MB-435 = assay: cells; conditions: Homo sapiens, MDA-MB-435, 48 h; for CC50: read-out: LC50
60 cancer cell lines = assay: NCI-60 one-dose screen (10 μM); format: cell-based; conditions: Homo sapiens; one dose of 10 μM, mean over 60 cancer cell lines; read-out: Mean Growth Percent (MGP)
Description: Additionally, the mean of the growth percentages (MGP) of each compound against all the 60 cancer cell lines is also reported, which is used as one of the selection criteria to continue with tests at five concentration doses.

UACC-257 = assay: cells; conditions: Homo sapiens, UACC-257, 48 h; for CC50: read-out: LC50
SNB-75 = assay: cells; conditions: Homo sapiens, SNB-75, 48 h; for CC50: read-out: LC50
MDA-MB-468 = assay: cells; conditions: Homo sapiens, MDA-MB-468, 48 h; for CC50: read-out: LC50
[1] = system: M. tuberculosis ATCC 27294; assay: Antitubercular broth microdilution MIC; format: cell-based; conditions: Mycobacterium tuberculosis; M. tuberculosis ATCC 27294 (H37Rv); read-out: Minimum inhibitory concentration (MIC)
A. flavus (ATCC 9170) = assay: Antifungal broth microdilution (CLSI); format: cell-based; conditions: ATCC9170; Afl: Aspergillus flavus
Protocol: (§1) Several of the obtained triazine derivatives were evaluated against sensitive fungal species comprising of two yeasts (Candida albicans (ATCC 10231), Cryptococcus neoformans (ATCC 32264)), three dermatophytes (Microsporum gypseum (CCC 115), Trichophyton rubrum (CCC 134-2000), Trichophyton mentagrophytes (CCC 202-2000)), and three Aspergillus fungi ((A. [NT] 26934), A. niger (ATCC 9029), and A. flavus (ATCC 9170)). […] Broth microdilution techniques were performed in 96-well microplates according to the Reference Method for Broth Dilution Antifungal Susceptibility Testing of Yeasts, document M27-A3 [86] and of Filamentous Fungi […]-A8 [87]. […] An inoculum suspension (100 μL) was added to each well (final well volume = 200 μL). One growth control well (containing medium, inoculum, and the same amount of DMSO as used for each compound) and one sterility control well (sample, medium, and sterile water instead of inoculum) were included for each fungus tested. Microtiter plates were incubated in a dark, humid chamber at 30 °C for the time necessary for each fungus. Amphotericin B, Terbinafine, Fluconazole and Itraconazole were used as a positive control. The tests were performed in triplicate.

[2] = system: Cryptococcus neoformans (ATCC 32264); assay: Antifungal broth microdilution (CLSI); format: cell-based; conditions: ATCC32264; Cn: Cryptococcus neoformans
Protocol: as §1

NCI-H322M = assay: cells; conditions: Homo sapiens, 48 h; for CC50: read-out: LC50
SF-539 = assay: cells; conditions: Homo sapiens, SF-539, 48 h; for CC50: read-out: LC50, SF-539, 48 h
HS 578T = assay: cells; conditions: Homo sapiens, 48 h; for CC50: read-out: LC50
M14 = assay: cells; conditions: Homo sapiens, M14, 48 h; for CC50: read-out: LC50
NCI-H522 = assay: cells; conditions: Homo sapiens, NCI-H522, 48 h; for CC50: read-out: LC50
NCI/ADR-RES = assay: cells; conditions: Homo sapiens, 48 h; for CC50: read-out: LC50
SR = assay: cells; conditions: Homo sapiens, 48 h; for CC50: read-out: LC50
UACC-62 = assay: cells; conditions: Homo sapiens, UACC-62, 48 h; for CC50: read-out: LC50
NCI-H226 = assay: cells; conditions: Homo sapiens, NCI-H226, 48 h; for CC50: read-out: LC50
OVCAR-4 = assay: cells; conditions: Homo sapiens, OVCAR-4, 48 h; for CC50: read-out: LC50

Compound: COc1ccc(/C=C/C(=O)c2ccc(S(=O)(=O)NCCNc3nc(Nc4ccc(F)cc4)nc(N(C)C)n3)cc2)cc1 [24c]
- GI50 (SNB-19): 5.58 µM
- CC50 (SNB-19): > 100 µM
- GI50 (RPMI-8226): 2.96 µM
- CC50 (RPMI-8226): > 100 µM
- GI50 (OVCAR-8): 9.51 µM
- CC50 (OVCAR-8): > 100 µM
- GI50 (DU-145): 7.54 µM
- CC50 (DU-145): > 100 µM
- GI50 (MCF7): 1.93 µM
- CC50 (MCF7): 46.1 µM
- GI50 (TK-10): 8.09 µM
- CC50 (TK-10): > 100 µM
- GI50 (HL-60(TB)): 3.6 µM
- CC50 (HL-60(TB)): > 100 µM
- GI50 (SN12C): 3.6 µM
- CC50 (SN12C): 44.5 µM
- GI50 (BT-549): 13.2 µM
- CC50 (BT-549): 56.7 µM
- GI50 (MDA-MB-435): 5.47 µM
- CC50 (MDA-MB-435): 79.6 µM
- activity at 10 µM (60 cancer cell lines): 24.7%
- GI50 (UACC-257): 13.3 µM
- CC50 (UACC-257): > 100 µM
- GI50 (SNB-75): 3.57 µM
- CC50 (SNB-75): > 100 µM
- GI50 (MDA-MB-468): 2.57 µM
- CC50 (MDA-MB-468): 52.6 µM
- MIC [1]: 25 µg/mL (≈ 42.3 µM)
- MIC (A. flavus (ATCC 9170)): > 250 µg/mL
- MIC [2]: > 250 µg/mL
- GI50 (NCI-H322M): 10.2 µM
- CC50 (NCI-H322M): > 100 µM
- GI50 (SF-539): 10.3 µM
- CC50 (SF-539): 51.2 µM
- GI50 (HS 578T): 4.68 µM
- CC50 (HS 578T): > 100 µM
- GI50 (M14): 4.27 µM
- CC50 (M14): 99.6 µM
- GI50 (NCI-H522): 2.55 µM
- CC50 (NCI-H522): 67.1 µM
- GI50 (NCI/ADR-RES): 5.66 µM
- CC50 (NCI/ADR-RES): > 100 µM
- GI50 (SR): 2.97 µM
- CC50 (SR): > 100 µM
- GI50 (UACC-62): 4.79 µM
- CC50 (UACC-62): 51.6 µM
- GI50 (NCI-H226): 3.8 µM
- CC50 (NCI-H226): > 100 µM
- GI50 (OVCAR-4): 4.12 µM
- CC50 (OVCAR-4): > 100 µM

Compound: CN(C)c1nc(NCCNS(=O)(=O)c2ccc(C3=Nc4c(N)nc(N)nc4NC(c4ccc(C(F)(F)F)cc4)C3)cc2)nc(N2CCOCC2)n1 (centres unmarked) [30g]
- GI50 (SNB-19): 30 µM
- CC50 (SNB-19): > 100 µM
- GI50 (RPMI-8226): 11.2 µM
- CC50 (RPMI-8226): > 100 µM
- GI50 (OVCAR-8): 59.5 µM
- CC50 (OVCAR-8): > 100 µM
- GI50 (DU-145): 72 µM
- CC50 (DU-145): > 100 µM
- GI50 (MCF7): 18.1 µM
- CC50 (MCF7): > 100 µM
- GI50 (TK-10): 54.3 µM
- CC50 (TK-10): > 100 µM
- GI50 (HL-60(TB)): 27.5 µM
- CC50 (HL-60(TB)): > 100 µM
- GI50 (SN12C): 35.7 µM
- CC50 (SN12C): > 100 µM
- GI50 (BT-549): 13.8 µM
- CC50 (BT-549): 73.1 µM
- GI50 (MDA-MB-435): 34.2 µM
- CC50 (MDA-MB-435): > 100 µM
- activity at 10 µM (60 cancer cell lines): 38.8%
- GI50 (UACC-257): 20.4 µM
- CC50 (UACC-257): > 100 µM
- GI50 (MDA-MB-468): 13.7 µM
- CC50 (MDA-MB-468): 69.5 µM
- MIC (A. flavus (ATCC 9170)): > 250 µg/mL
- MIC [2]: 125 µg/mL (≈ 172 µM)
- GI50 (NCI-H322M): 45.4 µM
- CC50 (NCI-H322M): > 100 µM
- GI50 (SF-539): 22.5 µM
- CC50 (SF-539): > 100 µM
- GI50 (HS 578T): 19.2 µM
- CC50 (HS 578T): > 100 µM
- GI50 (M14): 22 µM
- CC50 (M14): > 100 µM
- GI50 (NCI-H522): 51.7 µM
- CC50 (NCI-H522): > 100 µM
- GI50 (SR): 18.1 µM
- CC50 (SR): > 100 µM
- GI50 (UACC-62): 16.4 µM
- CC50 (UACC-62): 81.1 µM
- GI50 (NCI-H226): 17.6 µM
- CC50 (NCI-H226): > 100 µM
- GI50 (OVCAR-4): 37 µM
- CC50 (OVCAR-4): > 100 µM

Compound: CN(C)c1nc(NCCNS(=O)(=O)c2ccc(C3=Nc4c(N)nc(N)nc4NC(c4ccc(C(F)(F)F)cc4)C3)cc2)nc(Nc2ccc(F)cc2)n1 (centres unmarked) [31g]
- GI50 (RPMI-8226): 4 µM
- CC50 (RPMI-8226): 86 µM
- GI50 (OVCAR-8): 26.1 µM
- CC50 (OVCAR-8): 86 µM
- GI50 (DU-145): 38.5 µM
- CC50 (DU-145): 86 µM
- GI50 (MCF7): 2.87 µM
- CC50 (MCF7): 21 µM
- GI50 (TK-10): > 86 µM
- CC50 (TK-10): > 86 µM
- GI50 (HL-60(TB)): 4.07 µM
- CC50 (HL-60(TB)): 86 µM
- GI50 (BT-549): 11.8 µM
- CC50 (BT-549): 32.6 µM
- GI50 (MDA-MB-435): 9.13 µM
- CC50 (MDA-MB-435): 86 µM
- activity at 10 µM (60 cancer cell lines): 6.81%
- GI50 (UACC-257): 23.3 µM
- CC50 (UACC-257): 86 µM
- GI50 (SNB-75): 2.13 µM
- CC50 (SNB-75): 86 µM
- GI50 (MDA-MB-468): 2.67 µM
- CC50 (MDA-MB-468): 11.7 µM
- MIC [1]: 5 µg/mL (≈ 6.65 µM)
- MIC (A. flavus (ATCC 9170)): > 250 µg/mL
- MIC [2]: > 250 µg/mL
- GI50 (NCI-H322M): 42.5 µM
- CC50 (NCI-H322M): 86 µM
- GI50 (SF-539): 6.22 µM
- CC50 (SF-539): 24.7 µM
- GI50 (HS 578T): 9.03 µM
- CC50 (HS 578T): 86 µM
- GI50 (M14): 7.87 µM
- CC50 (M14): 86 µM
- GI50 (NCI-H522): 17.8 µM
- CC50 (NCI-H522): 44.8 µM
- GI50 (NCI/ADR-RES): > 86 µM
- CC50 (NCI/ADR-RES): > 86 µM
- GI50 (NCI-H226): 37.3 µM
- CC50 (NCI-H226): 86 µM
- GI50 (OVCAR-4): 25 µM
- CC50 (OVCAR-4): 86 µM
